# Laboratory results taken from patent US20250170114A1, “METHODS OF TREATMENT USING T-TYPE CALCIUM CHANNEL MODULATORS” (Praxis Precision Medicines, Inc., priority 2022, published 2025).
# Tested on: participants with ET
# Experiment: Phase 2 trial Part B: Beck Anxiety Inventory (BAI)
# Assay type: in vivo, human
# Description: The Beck Anxiety Index (BAI) is a brief measure of anxiety with a specific attention on somatic symptoms of anxiety that was developed as a measure aimed at discriminating between anxiety and depression (Beck et al 1988). The BAI contains 21 questions about the common symptoms of anxiety that the subject could have experienced during the past week (including the day the BAI is administered). The common symptoms of anxiety include numbness and tingling, sweating not due to heat, and fear of the worst happening. It is designed for individuals who are of 17 years of age or older and takes 5 to 10 minutes to complete. Each answer is scored on a scale value of 0 (not at all) to 3 (severely). Higher total scores indicate more severe anxiety symptoms. The standardized cutoffs are the following: 0-7: minimal, 8-15: mild, 16-25: moderate, 26-63: severe.
# In both phases, key safety measures included clinical laboratory evaluations, 12-lead ECG, C-SSRS, and vital signs. Key efficacy assessments included the TETRAS Performance subscale, TETRAS Upper Limb using accelerometry, CGI, PGI-C, TETRAS ADL Subscale, QUEST, BDI-II, and BAI. Blood samples were obtained for the determination of study drug and metabolite plasma concentrations.
# [1] = Part B OLT (FAS), Day 7, n = 13
# [2] = Part B OLT (FAS), Day 21, n = 12
# [3] = Part B OLT (FAS), Day 42, n = 11
# [4] = Part B RWD (RWAS), Day 56, Study drug, n = 6
# [5] = Part B RWD (RWAS), Day 70, Study drug, n = 5
smiles,measurement,setting,value
CC(C)(C)NC(=O)CN1CCC(CNC(=O)c2cc(F)cc(Cl)c2)CC1.Cl [Study drug],BAI Score Mild (8-15),[1],3 n (%)
same,BAI Score Minimal (0-7),[1],7 n (%)
same,BAI Score Moderate (16-25),[1],3 n (%)
same,BAI Score Severe (26-63),[1],0 n (%)
same,BAI Score Mild (8-15),[2],1 n (%)
same,BAI Score Minimal (0-7),[2],9 n (%)
same,BAI Score Moderate (16-25),[2],2 n (%)
same,BAI Score Severe (26-63),[2],0 n (%)
same,BAI Score Mild (8-15),[3],1 n (%)
same,BAI Score Minimal (0-7),[3],9 n (%)
same,BAI Score Moderate (16-25),[3],1 n (%)
same,BAI Score Severe (26-63),[3],0 n (%)
same,BAI Score Mild (8-15),[4],2 n (%)
same,BAI Score Minimal (0-7),[4],4 n (%)
same,BAI Score Moderate (16-25),[4],0 n (%)
same,BAI Score Severe (26-63),[4],0 n (%)
same,BAI Score Mild (8-15),[5],0 n (%)
same,BAI Score Minimal (0-7),[5],4 n (%)
same,BAI Score Moderate (16-25),[5],0 n (%)
same,BAI Score Severe (26-63),[5],1 (20.0) n (%)
same,change in BAI scores,Part B open-label titration phase,shift in BAI scores from mild to minimal anxiety
